“Also recorded” adds a separate entry of the source.
Experiments:
[1] = biological target: T1, AChE (from human erythrocyte) (Homo sapiens, UniProt P22303); assay: biochemical; conditions: for AChE IR (%) inhibition ratio: at 50 μM
T1 construct: AChE (EC 3.1.1.8, from human erythrocyte); purchased Sigma-Aldrich (St. Louis, MO, USA); host or cells: human erythrocyte
Method: (§1) BChE (EC 3.1.1.8, from human serum), AChE (EC […]), butyrylthiocholine (BUC) iodide, and acetylthiocholine (ATC) iodide were purchased from Sigma-Aldrich (St. Louis, MO, USA). Enzyme was dissolved and pre-prepared at 2.0 U/mL. 10 μL of enzyme, 20 μL of 0.01 M 5,5′-dithiobis(2-nitrobenzoic acid), 10 μL of tested compound, and 40 μL of PBS were pre-incubated together for 5 min. Io initiate the reaction, 20 μL of 0.01 M BUC or ATC was added. The activity was determined by measuring the increase in absorbance at 410 nm at 37 °C in 2 min intervals using Tecan Spark multimode microplate reader (Mannedorf, Switzerland). The percentage of inhibition (I) was calculated according to the formula: I = (Ac − Ai)/Ac × 100%, with Ai and Ac representing the change in the absorbance in the presence of an inhibitor and without an inhibitor, respectively.

[2] = biological target: T2, BChE (EC 3.1.1.8, from human serum) (Homo sapiens, UniProt P06276); assay: biochemical; conditions: for BChE IR (%) inhibition ratio: at 50 μM; for improved BChE inhibitory activity, folds compared with 1: compared with hit 1; for IC50: mean ± SD of three separate experiments
T2 construct: BChE (EC 3.1.1.8, from human serum); purchased Sigma-Aldrich (St. Louis, MO, USA); host or cells: human serum
Method: as §1

Aβ1-42 aggregation = biological target: T3, Aβ1-42 aggregation (Homo sapiens, UniProt P05067); assay: Inhibition of Aβ1-42 aggregation, thioflavin T (ThT) method; type: biochemical; conditions: for inhibitory activity against Aβ1-42 aggregation (in words): 1 to 10 μM; for inhibition ratio towards Aβ1-42 aggregation: at 10 μM
T3 construct: pre-treated Aβ1–42 (GL Biochem Ltd); purchased GL Biochem Ltd, shanghai, China
Method: The ThT-based fluorometric assay [54] was performed for the determination of compounds’ anti-Aβ1–42 aggregation potency.
Determination of the inhibitory potency on Aβ1–42 aggregation
1,1,1,3,3,3-hexafluoro-2-propanol (HFIP) pre-treated Aβ1–42 (GL Biochem Ltd, shanghai, China) was dissolved in DMSO to make a 200 μM stock solution. The stock solution was centrifuged at the speed of 13,500 rpm for 10 min. The above supernatant was used for further experiments. The compounds for testing were dissolved in DMSO at concentrations of 0.8 mM. A screening assay for the compounds to inhibit Aβ aggregation was performed by measuring ThT fluorescence emission.
μL) and 2 μL of 200 μM Aβ1–42 were added into 76 μL of phosphate-bufered saline (PBS at pH 7.4) in a 96-well microtiter plate. After incubation for 24 h at room temperature, 80 μL of 5 μM ThT solution (in 50 mM glycine-NaOH at pH 8.5) was added to the reaction solution. Fluorescence emission was measured at 490 nm with an excitation wavelength of 450 nm on a Tecan Spark multimode microplate reader. The fluorescence intensities were compared and the % inhibition was calculated by the following equation: 100 − [(Fi − Fb)/(Fo − Fb) × 100] where Fi, Fo and Fb are the fluorescence intensities obtained for Aβ aggregation in the presence of inhibitors, A β1– 42 and ThT; in the presence of Aβ1–42 and THT but no inhibitors; and the blanks

[3] = system: SH-SY5Y neuroblastoma cells; assay: Cell viability (cytotoxicity) MTT assay; type: cell-based; conditions: tested concentrations up to 200 μM
Method: (§2) The MTT method was used to test the cytotoxicity and neuroprotective activity evaluation of compounds. The detailed procedure was included in Supplementary Materials. […]
42 and ThT; in the presence of Aβ1–42 and THT but no inhibitors; and the blanks […]
SH-SY5Y cells were inoculated into 96-well plates, and each well was seeded with […]. After incubation for 24 h, the medium was removed and replaced with 100 µL medium containing the different concentrations of tested compounds for 24 h, and then incubated with 10 µL of 3-(4,5-dimethylthiazol-2-yl)-2,5-diphenyltetrazolium bromide (MTT) at 37 °C for 3 h. In this step, 100 µL DMSO was added to dissolve the […]
(1 picture or pasted object on this page, not shown here) […]
(§3) formazan crystals. The formazan dye product was measured by the absorbance at 490 nm on a Tecan Spark multimode microplate reader (Tecan, Switzerland).
(§4) Neuroprotective activity assay
SH-SY5Y cells were maintained at 37 °C in a humidified atmosphere containing 5% CO2. Cells were seeded into multi-well plates at a density of 2~2.5 × 10^5 cells/mL in DMEM medium, supplemented with 10% heat-inactivated bovine calf serum (Gibco, South America Origin). Experiments were carried out in 24 h after cells were seeded. […]
Th e compounds were first dissolved with DMSO and then diluted with DMEM medium. […]

[4] = system: Aβ1-42-induced toxicity in SH-SY5Y cells; assay: Protective activity against Aβ1-42-induced toxicity, MTT method; type: cell-based; conditions: for viability at 5 µM / viability at 10 µM: Homo sapiens, SH-SY5Y, 24 h, read-out: cell viability of Aβ1-42-treated SH-SY5Y cells
Method: Based on this observation, compound 23 might be a more promising protective agent against Aβ1-42-induced toxicity on the SH-SY5Y cell model.
as §2, §3, §4
SH-SY5Y cells were maintained at 37 °C in a humidified atmosphere containing 5% CO2. Cells were seeded into multi-well plates at a density of 2~2.5 × 10^5 cells/mL in DMEM medium, supplemented with 10% heat-inactivated bovine calf serum (Gibco, South America Origin). Experiments were carried out in 24 h after cells were seeded.
Aβ1–42 were stored at 4 °C until 0.1 mM stock solutions were prepared in phosphate bufer saline (PBS) on the day of application to cultures. Th e compounds were first dissolved with DMSO and then diluted with DMEM medium. After pretreatment with the compounds for 2 h, Aβ1–42 were added to SH-SY5Y cell cultures in 24 h. Assays for cell viability were performed in 24 h after cultured in fresh medium .

BChE = biological target: T4, BChE (Homo sapiens, UniProt P06276); assay: Kinetic study of BChE inhibition (Lineweaver-Burk); type: biochemical
T4 construct: BChE (EC 3.1.1.8, from human serum); purchased Sigma-Aldrich (St. Louis, MO, USA); host or cells: human serum
Method: To further understand the action mechanism for BChE inhibition of this series of compounds, the kinetic assay was performed with the optimal compound 23 as a model compound. […]. […] The result was confirmed by the subsequent molecular docking study of 23. […].
Kinetic study of BChE inhibition was performed by using Ellman’s method as described in Section 3.3.
Figure 3 Kinetic study of 23 on BChE inhibition. […];

T1 sequence (P22303 other isoform, or with tags, fused parts or gaps): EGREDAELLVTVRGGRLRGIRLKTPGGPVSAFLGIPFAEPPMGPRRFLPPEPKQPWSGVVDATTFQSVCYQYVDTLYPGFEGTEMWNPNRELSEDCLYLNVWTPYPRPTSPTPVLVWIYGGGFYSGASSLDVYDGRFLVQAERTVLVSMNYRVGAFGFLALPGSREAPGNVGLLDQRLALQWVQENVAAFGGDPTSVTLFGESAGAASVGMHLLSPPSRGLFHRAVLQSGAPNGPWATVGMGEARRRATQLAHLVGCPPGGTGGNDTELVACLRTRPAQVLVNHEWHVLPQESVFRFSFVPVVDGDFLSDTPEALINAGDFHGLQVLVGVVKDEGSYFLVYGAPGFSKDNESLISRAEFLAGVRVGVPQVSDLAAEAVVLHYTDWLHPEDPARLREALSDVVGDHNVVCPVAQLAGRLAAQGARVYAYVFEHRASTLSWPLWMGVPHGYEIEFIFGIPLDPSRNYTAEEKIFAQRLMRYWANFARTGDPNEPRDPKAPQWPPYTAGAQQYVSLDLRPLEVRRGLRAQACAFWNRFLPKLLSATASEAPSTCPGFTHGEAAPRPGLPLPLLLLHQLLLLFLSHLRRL
T3 sequence (P05067 672-713): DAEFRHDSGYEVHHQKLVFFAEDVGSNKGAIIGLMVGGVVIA
T2 sequence (P06276 29-602): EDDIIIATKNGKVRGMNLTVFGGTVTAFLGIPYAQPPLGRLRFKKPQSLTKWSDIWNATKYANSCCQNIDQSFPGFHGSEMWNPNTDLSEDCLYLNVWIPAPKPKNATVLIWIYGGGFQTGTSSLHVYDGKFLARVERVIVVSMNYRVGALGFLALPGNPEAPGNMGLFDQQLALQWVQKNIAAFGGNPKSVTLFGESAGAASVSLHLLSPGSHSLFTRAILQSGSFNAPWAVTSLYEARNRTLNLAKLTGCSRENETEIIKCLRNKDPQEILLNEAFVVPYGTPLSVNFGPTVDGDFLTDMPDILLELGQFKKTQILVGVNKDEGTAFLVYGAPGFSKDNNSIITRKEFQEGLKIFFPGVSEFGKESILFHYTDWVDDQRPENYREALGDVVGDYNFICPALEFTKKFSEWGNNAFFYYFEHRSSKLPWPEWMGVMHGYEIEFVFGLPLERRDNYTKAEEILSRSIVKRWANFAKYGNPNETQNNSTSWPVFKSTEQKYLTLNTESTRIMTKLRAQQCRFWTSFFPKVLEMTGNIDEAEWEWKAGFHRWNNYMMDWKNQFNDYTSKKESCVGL
T4 sequence (P06276 29-602): as above

SMILES	AChE IR (%) inhibition ratio [1] [%]	BChE IR (%) inhibition ratio [2] [%]	improved BChE inhibitory activity, folds compared with 1 [2] [fold]	IC50 [2] [nM]	inhibitory activity against Aβ1-42 aggregation (in words) (Aβ1-42 aggregation)	inhibition ratio towards Aβ1-42 aggregation (Aβ1-42 aggregation) [%]	cytotoxicity towards SH-SY5Y cells [3]	viability at 5 µM [4] [%]	viability at 10 µM [4] [%]	cell viability of Aβ1-42-treated SH-SY5Y cells ([4]; compound at 10 μM, 10 μM Aβ1-42 for 24h) [%]	fold increase in BChE inhibitory potency ([2]; compared with 9)	fold increase in BChE inhibitory potency ([2]; compared with 16) [fold]	Ki (BChE; BChE, read-out: KI value (replot of slope against concentration)) [nM]	type of BChE inhibition (BChE; Lineweaver-Burk plots)	IC50 ([1]; mean ± SD of three separate experiments) [nM]
O=C(c1ccc(CN2CCc3ccccc3C2)cc1)N1CCCC1 [Compound 9, (4-((3,4-dihydroisoquinolin-2(1H)-yl)methyl)phenyl)(pyrrolidin-1-yl)methanone]	29.1	95.1	9	2680 ± 280	dose-dependent manner	45.5 ± 6.2	did not show obvious cytotoxicity; also recorded: non-toxic	84.7 ± 1.77	88.8 ± 0.81	–	–	–	–	–	–
O=C(O[C@@H]1Cc2c(O)cc(O)cc2O[C@@H]1c1cc(O)c(O)c(O)c1)c1cc(O)c(O)c(O)c1 [EGCG, epigallocatechin gallate, reference compound]	–	–	–	–	–	–	–	–	–	87.18 ± 1.29	–	–	–	–	–
O=C(Nc1ccccc1Br)c1ccc(CN2CCc3ccccc3C2)cc1 [Compound 23, N-(2-bromophenyl)-4-((3,4-dihydroisoquinolin-2(1H)-yl)methyl)benzamide]	22.7	97.9	21	830 ± 80	dose-dependent manner	44.2 ± 3.3	did not show obvious cytotoxicity; also recorded: non-toxic	91.1 ± 1.25	98 ± 1.7	–	about 3 fold	~8	520	mixed-type inhibitor	–
CCN(CC)CCNC(=O)c1ccc(CN2CCc3ccccc3C2)cc1 [Compound 1, N-(2-(diethylamino)ethyl)-4-((3,4-dihydroisoquinolin-2(1H)-yl)methyl)benzamide]	26.6	68.4	–	17900	–	–	–	–	–	–	–	–	–	–	> 50000
O=C(Sc1ccccc1Br)c1ccc(CN2CCc3ccccc3C2)cc1 [Compound 27, S-(2-bromophenyl) 4-((3,4-dihydroisoquinolin-2(1H)-yl)methyl)benzothioate]	22.8	1.5	–	–	–	–	–	–	–	–	–	–	–	–	–

Source: PMC6680840 (Molecules, 2019)
